Measured values: ChEMBL document CHEMBL1201862, “PubChem BioAssay data set” (2004)
The source made the active and inactive calls.

Key:
[1] = test system: BJ; assay: BJ-TERT-LT-ST fibroblast viability loss – cell-based, RAS-independent, luminescence, dose response (AID 1935); assay type: functional; settings: Homo sapiens;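 further: BJ fibroblasts immortalized with TERT plus LT and ST oncogenes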
[2] = test system: A-375; assay: proliferation inhibition in MITF-low A375 cells – cell-based, cherry-pick samples, set 2, counter-screen for MITF modulator project, dose response (AID 540335); assay type: functional; settings: Homo sapiens
[3] = biological target: T1, Microphthalmia-associated transcription factor (Homo sapiens, UniProt O75030); assay: reducers of TRPM1 reporter luminescence, concentration series – cell-based, SK-MEL-5, cherry-picked, set 3, MITF inhibitor project, dose response (AID 493073); assay type: functional;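 further: SK-MEL-5 melanoma cells with luciferase driven by the MITF target TRPM1 promoter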
T1 sequence (O75030 whole entry): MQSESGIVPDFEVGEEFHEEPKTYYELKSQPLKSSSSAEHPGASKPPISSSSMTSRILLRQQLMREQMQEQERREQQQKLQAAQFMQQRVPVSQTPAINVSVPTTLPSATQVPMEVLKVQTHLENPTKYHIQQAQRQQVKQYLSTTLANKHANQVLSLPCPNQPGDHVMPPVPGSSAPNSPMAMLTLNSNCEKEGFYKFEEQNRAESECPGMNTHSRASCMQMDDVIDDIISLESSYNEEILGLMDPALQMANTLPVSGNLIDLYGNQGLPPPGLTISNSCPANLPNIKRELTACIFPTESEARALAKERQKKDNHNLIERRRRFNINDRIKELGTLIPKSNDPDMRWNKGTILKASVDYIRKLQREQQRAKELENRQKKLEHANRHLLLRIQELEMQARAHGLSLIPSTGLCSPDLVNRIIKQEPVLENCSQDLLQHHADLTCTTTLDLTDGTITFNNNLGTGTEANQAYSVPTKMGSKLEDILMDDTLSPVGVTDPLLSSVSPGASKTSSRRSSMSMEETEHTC

[4] = A Cell Based Secondary Assay To Explore Cytotoxicity of Compounds that Sensitize Mycobacterium Tuberculosis to Beta-Lactam Antibiotics.; assay type: functional
[5] = test system: BJ; assay: cells; assay type: functional, cell-based; settings: Homo sapiens
[6] = test system: BJ; assay: BJ-TERT fibroblast viability loss – cell-based, RAS-independent, luminescence, dose response (AID 1933); assay type: functional; settings: Homo sapiens
[7] = DRD fibroblast viability loss – cell-based, non-viral oncogenic, luminescence, dose response (AID 1934); assay type: functional; settings: Homo sapiens
[8] = biological target: Voltage-gated inwardly rectifying potassium channel KCNH2 (Homo sapiens, UniProt Q12809); settings: Potency;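 further: confirmatory quantitative high-throughput screen measuring inhibition of hERG channel activity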
Voltage-gated inwardly rectifying potassium channel KCNH2, sequence (Q12809 whole entry): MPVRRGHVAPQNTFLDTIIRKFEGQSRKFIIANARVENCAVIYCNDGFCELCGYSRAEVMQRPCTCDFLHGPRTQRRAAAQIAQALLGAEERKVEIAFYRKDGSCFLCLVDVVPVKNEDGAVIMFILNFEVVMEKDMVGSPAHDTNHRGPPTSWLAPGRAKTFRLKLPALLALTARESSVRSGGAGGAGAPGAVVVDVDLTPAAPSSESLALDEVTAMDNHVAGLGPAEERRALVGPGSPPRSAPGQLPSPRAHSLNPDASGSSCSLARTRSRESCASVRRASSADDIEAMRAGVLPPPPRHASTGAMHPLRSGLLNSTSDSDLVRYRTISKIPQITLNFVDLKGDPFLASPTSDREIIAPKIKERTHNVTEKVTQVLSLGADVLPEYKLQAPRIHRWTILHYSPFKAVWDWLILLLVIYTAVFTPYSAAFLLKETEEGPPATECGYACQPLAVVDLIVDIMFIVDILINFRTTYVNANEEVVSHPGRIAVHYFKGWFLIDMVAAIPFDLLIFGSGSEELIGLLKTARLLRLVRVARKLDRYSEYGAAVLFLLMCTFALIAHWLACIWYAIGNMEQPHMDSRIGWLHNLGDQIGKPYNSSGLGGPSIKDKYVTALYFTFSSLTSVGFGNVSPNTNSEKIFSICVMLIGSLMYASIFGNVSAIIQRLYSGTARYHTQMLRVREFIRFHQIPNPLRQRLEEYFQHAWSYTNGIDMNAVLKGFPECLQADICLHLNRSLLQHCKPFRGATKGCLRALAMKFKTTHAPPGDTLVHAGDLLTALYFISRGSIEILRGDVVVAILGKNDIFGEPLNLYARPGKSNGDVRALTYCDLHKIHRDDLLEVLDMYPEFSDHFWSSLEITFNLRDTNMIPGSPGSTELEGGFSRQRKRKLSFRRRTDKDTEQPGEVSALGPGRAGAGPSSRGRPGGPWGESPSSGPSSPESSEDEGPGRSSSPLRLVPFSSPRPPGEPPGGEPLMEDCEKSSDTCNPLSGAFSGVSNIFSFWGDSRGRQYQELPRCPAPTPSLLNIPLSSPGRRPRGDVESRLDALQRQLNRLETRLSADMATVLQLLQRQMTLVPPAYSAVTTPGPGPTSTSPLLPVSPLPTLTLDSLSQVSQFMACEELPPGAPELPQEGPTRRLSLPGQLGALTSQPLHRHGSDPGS

[9] = test system: Vero; assay: cells; assay type: functional, cell-based; settings: Chlorocebus sabaeus
[10] = biological target: Heat shock protein HSP 90-alpha (Homo sapiens, UniProt P07900); assay type: functional, organism-based
[11] = test system: Vero; assay: cells; assay type: functional; settings: Chlorocebus sabaeus
[12] = biological target: Glucose-6-phosphate 1-dehydrogenase (Homo sapiens, UniProt P11413); assay: inhibition of Homo sapiens G6PD, dose series – biochemical, fluorescence, selectivity assay for P. falciparum G6PD inhibitor project, dose response (AID 504792); assay type: functional
Glucose-6-phosphate 1-dehydrogenase, sequence (P11413 whole entry): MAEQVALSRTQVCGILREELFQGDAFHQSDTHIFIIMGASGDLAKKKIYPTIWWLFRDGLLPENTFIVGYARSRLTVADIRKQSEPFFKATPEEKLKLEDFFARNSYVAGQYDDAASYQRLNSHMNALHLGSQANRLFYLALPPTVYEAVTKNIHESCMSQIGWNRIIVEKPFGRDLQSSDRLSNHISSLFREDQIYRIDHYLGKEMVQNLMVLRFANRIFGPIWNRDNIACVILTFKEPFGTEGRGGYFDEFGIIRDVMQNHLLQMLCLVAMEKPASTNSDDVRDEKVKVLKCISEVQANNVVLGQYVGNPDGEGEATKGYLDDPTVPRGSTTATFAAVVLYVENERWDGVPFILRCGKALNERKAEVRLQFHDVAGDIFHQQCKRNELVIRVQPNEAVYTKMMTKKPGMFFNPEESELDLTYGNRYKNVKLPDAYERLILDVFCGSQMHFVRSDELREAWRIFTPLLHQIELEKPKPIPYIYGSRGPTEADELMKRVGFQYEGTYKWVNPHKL

[13] = biological target: DNA topoisomerase (Yersinia pestis, UniProt A0A2S9PM60); assay: Yersinia topoisomerase I cleavage product accumulation – biochemical, cherry-pick, dose response (AID 588525)
DNA topoisomerase, sequence (A0A2S9PM60 whole entry): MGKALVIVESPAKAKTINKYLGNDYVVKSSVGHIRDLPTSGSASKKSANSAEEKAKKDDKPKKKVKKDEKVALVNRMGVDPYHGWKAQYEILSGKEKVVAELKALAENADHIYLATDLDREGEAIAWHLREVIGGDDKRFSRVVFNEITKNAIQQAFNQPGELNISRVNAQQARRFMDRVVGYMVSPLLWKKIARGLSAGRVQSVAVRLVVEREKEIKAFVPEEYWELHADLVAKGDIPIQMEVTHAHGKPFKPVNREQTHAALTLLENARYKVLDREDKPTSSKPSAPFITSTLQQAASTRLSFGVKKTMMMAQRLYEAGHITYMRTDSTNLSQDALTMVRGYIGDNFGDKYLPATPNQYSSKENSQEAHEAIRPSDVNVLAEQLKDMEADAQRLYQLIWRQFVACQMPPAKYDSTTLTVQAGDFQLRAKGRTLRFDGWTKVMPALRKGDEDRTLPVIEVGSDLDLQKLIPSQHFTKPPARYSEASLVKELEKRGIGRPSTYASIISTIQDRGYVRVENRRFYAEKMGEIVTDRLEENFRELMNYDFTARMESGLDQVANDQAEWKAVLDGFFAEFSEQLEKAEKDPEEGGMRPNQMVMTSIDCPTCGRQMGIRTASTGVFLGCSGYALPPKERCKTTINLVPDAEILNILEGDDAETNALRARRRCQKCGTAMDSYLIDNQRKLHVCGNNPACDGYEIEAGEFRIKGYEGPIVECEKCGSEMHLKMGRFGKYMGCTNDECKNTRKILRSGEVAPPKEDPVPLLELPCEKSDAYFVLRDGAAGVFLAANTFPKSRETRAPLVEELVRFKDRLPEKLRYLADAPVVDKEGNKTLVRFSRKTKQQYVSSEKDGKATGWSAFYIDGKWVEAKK

[14] = test system: HEK293; assay: HEK293T cell viability loss, resazurin readout – resazurin fluorescence, cytotoxicity control for NF-kB activator project, SAR follow-up (AID 493251); assay type: functional, cell-based; settings: Homo sapiens
[15] = test system: HEK293; assay: SAR Analysis of small molecule inhibitors of T-cell specific antigen receptor-induced NF-kB activation in a HEK-293T cell line using a luminescence assay - Set 2. [Related pubchem assays (depositor defined):AID435003, AID435012, AID489026]; assay type: functional, cell-based; settings: Homo sapiens
[16] = test system: Jurkat; assay: SAR Analysis of small molecule inhibitors of T-cell specific antigen receptor-induced NF-kB activation in a Jurkat cell line using a luminescence assay - Set 2. [Related pubchem assays (depositor defined):AID435003, AID435012, AID465]; assay type: functional, cell-based; settings: Homo sapiens

With `COc1ccc2[nH]cc(C(=O)CCl)c2c1` the EC50 [1] was 7.84 µM (inconclusive), the AC50 [2] was 45.9 µM (active) and the AC50 [3] was 5.65 µM (active). For the same compound, the CC50 [4] was 5.65 µM (active), the EC50 [5] was 7.02 µM (active) and the EC50 [6] was 4.61 µM (active). For the same compound, the EC50 [7] was 8.64 µM (active).
In the case of `N=C1C=CC(=C(c2ccc(N)cc2)c2ccc(N)cc2)C=C1`, the AC50 [8] is reported as 44.7 µM (inconclusive).
For `O=[N+]([O-])c1ccc(NC(c2ccccc2)c2ccc3cccnc3c2O)cc1` (centres undefined), the IC50 [9] was > 25 µM (active), the AC50 [10] was 3.92 µM (active) and the CC50 [11] was 4.02 µM (active).
For `CN(C)c1ccc2nc3ccc(=O)cc-3sc2c1`, the IC50 [12] was > 80 µM (inactive) and the AC50 [13] was 4.67 µM (active).
With `CCCOc1ccc(C(=O)Nc2ccc(S(=O)(=O)N3C[C@@H]4C[C@@H](C3)c3cccc(=O)n3C4)cc2)cc1` the AC50 [13] was 3.3 µM (active).
With `CN1CCN(c2ccccc2NC(=O)c2ccc([N+](=O)[O-])o2)CC1` the IC50 [14] was 23.6 µM (inactive), the IC50 [15] was 15.6 µM (active) and the AC50 [3] was 4.95 µM (active). The IC50 [16] was 24.8 µM (inactive).
In the case of `Clc1ccc(C(c2ccccc2Cl)C(Cl)(Cl)Cl)cc1` (centres undefined), the AC50 [8] is reported as 8.91 µM (inconclusive).
